Here are results for two compounds from patent US12440528B2, “Methods of treating ovarian cancer with hemp extract” (Ecofibre USA Inc., priority 2021, dated 2025).

As a reminder, the Cmax is the highest concentration seen after dosing.

Read-outs that look alike come from different tables or passages of the source.

For one data set, the target named is P-glycoprotein (Homo sapiens, UniProt P08183). The note with it: in vitro; cited from earlier work.
For data set [1] the following is noted: chronic use, humans; cited from earlier work.
In data set [2] the test system is patient derived organoids. It counts as cell-based, human. The note with it: organoid of the chemoresistant endometrial cancer patient. The text has this:
A few of the above drug products, as well as additional drugs were tried for response to patient derived organoids.

The conditions of data set [3]: cited from earlier work.
In data set [4] the test system is patient derived organoids (PD3D Cell Culture). The data set can be described thus: Calculated IC50 in PD3D cell culture of the patient derived organoids. The format is cell-based, human.
The conditions of data set [5]: cells without a printed unit; cited from earlier work.

P-glycoprotein, sequence (P08183 whole entry): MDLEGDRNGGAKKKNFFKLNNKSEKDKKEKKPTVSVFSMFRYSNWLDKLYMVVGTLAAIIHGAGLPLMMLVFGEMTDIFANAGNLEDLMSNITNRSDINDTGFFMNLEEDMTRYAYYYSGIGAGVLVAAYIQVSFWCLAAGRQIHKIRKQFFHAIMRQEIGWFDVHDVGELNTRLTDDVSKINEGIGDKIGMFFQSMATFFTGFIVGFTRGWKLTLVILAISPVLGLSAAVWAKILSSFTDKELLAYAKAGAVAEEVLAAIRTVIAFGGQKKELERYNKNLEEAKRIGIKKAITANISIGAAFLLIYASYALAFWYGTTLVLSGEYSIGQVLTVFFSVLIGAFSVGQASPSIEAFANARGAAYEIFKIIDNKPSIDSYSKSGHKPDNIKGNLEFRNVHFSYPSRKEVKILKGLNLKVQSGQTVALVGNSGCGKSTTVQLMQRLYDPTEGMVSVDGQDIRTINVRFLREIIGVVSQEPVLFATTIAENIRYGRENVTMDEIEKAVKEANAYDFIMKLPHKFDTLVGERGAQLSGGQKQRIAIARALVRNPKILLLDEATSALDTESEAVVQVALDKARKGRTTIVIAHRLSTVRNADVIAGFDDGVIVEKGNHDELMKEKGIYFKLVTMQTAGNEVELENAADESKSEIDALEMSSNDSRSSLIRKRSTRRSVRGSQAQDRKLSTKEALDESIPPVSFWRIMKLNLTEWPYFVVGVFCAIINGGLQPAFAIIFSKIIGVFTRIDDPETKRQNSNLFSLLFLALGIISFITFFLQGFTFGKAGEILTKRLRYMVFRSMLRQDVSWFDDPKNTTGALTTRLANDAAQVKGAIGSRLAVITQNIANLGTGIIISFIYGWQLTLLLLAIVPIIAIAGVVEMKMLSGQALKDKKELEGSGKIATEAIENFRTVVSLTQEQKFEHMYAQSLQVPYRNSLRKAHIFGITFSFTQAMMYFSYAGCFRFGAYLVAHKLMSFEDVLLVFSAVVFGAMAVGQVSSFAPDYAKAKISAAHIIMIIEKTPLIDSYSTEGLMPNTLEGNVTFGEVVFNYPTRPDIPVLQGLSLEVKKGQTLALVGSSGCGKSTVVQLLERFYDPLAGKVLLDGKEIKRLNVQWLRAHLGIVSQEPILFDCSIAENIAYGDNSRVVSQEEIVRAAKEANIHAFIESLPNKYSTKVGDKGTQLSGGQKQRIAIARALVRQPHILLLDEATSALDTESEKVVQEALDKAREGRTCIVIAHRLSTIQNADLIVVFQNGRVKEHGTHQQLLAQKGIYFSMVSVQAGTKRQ

Consider `C=C(C)[C@@H]1CCC(C)=C[C@H]1c1c(O)cc(CCCCC)cc1O` [CBD, cannabidiol], for which the “inhibition of P-glycoprotein-mediated drug transport” value at P-glycoprotein is listed as “significantly inhibits”. In addition, the “doses established as well tolerated” value in data set [1] is given as “up to 1,500 mg/day”. In addition, in data set [2], the “response of the patient's organoid” value was “significant response”. For the same compound, the “peak plasma concentrations of CBD” value in data set [3] (coadministration of rifampicin (a CYP3A4 inducer)) was “significantly reduced”. The “peak plasma drug concentrations” value in data set [3] (coadministration of the CYP3A4 inhibitor ketoconazole) was “nearly doubled”. The “time of maximum plasma concentration” value is 1.6 h in data set [3] (oral-mucosal or sublingual delivery) and 2.5 to 5 h in data set [3] (orally delivered). In addition, the “time of maximum plasma concentration, delayed” value in data set [3] (orally delivered, some individuals) is recorded as “up to 6 hours”.

As to `CCCCCOC(=O)Nc1nc(=O)n([C@@H]2O[C@H](C)[C@@H](O)[C@H]2O)cc1F` [Capecitabine (5-FU), Capecitabine], the “Calculated IC50 PD3D Cell Culture” value in data set [4] was “Not Reached”. Moreover, in data set [5], the Cmax is 2220 nM.
